Experimental data published in PubChem BioAssay AID1963830 (Molecular Pharmacology Branch, DTP, NCI, 2024).

Test system: 922993-354-T-J3-PDC complex spheroid viability
Assay: Anticancer human tumor 922993-354-T-J3-PDC patient-derived endometrial carcinoma cell line growth inhibition [POLQ]
Conditions: for IC50: curve of first compound; for viability, T/C: stronger effect = lower value
In short: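 PDC + HUVEC + MSC complex spheroids; POLQ inhibitors ± partner drugs; top conc. at/near clinical Cmax, else 10 microM (SN-38 1 microM), half-log dilutions; 37 degrees C, 5% CO2.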

[1] = second compound 0.0316 µM, first compound 0.00316 µM
[2] = second compound 0.0316 µM, first compound 0.01 µM
[3] = second compound 0.0316 µM, first compound 0.0316 µM
[4] = second compound 0.0316 µM, first compound 0.1 µM
[5] = second compound 0.1 µM, first compound 0.00316 µM
[6] = second compound 0.1 µM, first compound 0.01 µM
[7] = second compound 0.1 µM, first compound 0.0316 µM
[8] = second compound 0.1 µM, first compound 0.1 µM
[9] = second compound 0.316 µM, first compound 0.00316 µM
[10] = second compound 0.316 µM, first compound 0.01 µM
[11] = second compound 0.316 µM, first compound 0.0316 µM
[12] = second compound 0.316 µM, first compound 0.1 µM
[13] = second compound 1 µM, first compound 0.00316 µM
[14] = second compound 1 µM, first compound 0.01 µM
[15] = second compound 1 µM, first compound 0.0316 µM
[16] = second compound 1 µM, first compound 0.1 µM
[17] = second compound 3.16 µM, first compound 0.00316 µM
[18] = second compound 3.16 µM, first compound 0.01 µM
[19] = second compound 3.16 µM, first compound 0.0316 µM
[20] = second compound 3.16 µM, first compound 0.1 µM
[21] = second compound 10 µM, first compound 0.00316 µM
[22] = second compound 10 µM, first compound 0.01 µM
[23] = second compound 10 µM, first compound 0.0316 µM
[24] = second compound 10 µM, first compound 0.1 µM
[25] = second compound 0.0316 µM, first compound 0.316 µM
[26] = second compound 0.0316 µM, first compound 1 µM
[27] = second compound 0.1 µM, first compound 0.316 µM
[28] = second compound 0.1 µM, first compound 1 µM
[29] = second compound 0.316 µM, first compound 0.316 µM
[30] = second compound 0.316 µM, first compound 1 µM
[31] = second compound 1 µM, first compound 0.316 µM
[32] = second compound 1 µM, first compound 1 µM
[33] = second compound 3.16 µM, first compound 0.316 µM
[34] = second compound 3.16 µM, first compound 1 µM
[35] = second compound 10 µM, first compound 0.316 µM
[36] = second compound 10 µM, first compound 1 µM
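Also: spheroids exposed to the agents for one week.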
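For viability, T/C in this document: 100% = DMSO vehicle control wells.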

Cn1ncnc1[C@H]1c2n[nH]c(=O)c3cc(F)cc(c23)N[C@@H]1c1ccc(F)cc1 + Cc1cccc(N(C)C(=O)C2C(O)CCN2c2nc(C)cc(C(F)(F)F)c2C#N)c1
IC50 (second compound 0.0316 µM): > 100 nM | IC50 (second compound 0.1 µM): > 100 nM | IC50 (second compound 0.316 µM): > 100 nM | IC50 (second compound 1 µM): > 100 nM | IC50 (second compound 3.16 µM): 83 nM | IC50 (second compound 10 µM): 30.7 nM | viability, T/C (second compound 0.0316 µM, first compound 0.000316 µM): 97.8% | viability, T/C (second compound 0.0316 µM, first compound 0.001 µM): 95.5% | viability, T/C [1]: 111% | viability, T/C [2]: 98.3% | viability, T/C [3]: 99% | viability, T/C [4]: 70.2% | viability, T/C (second compound 0.1 µM, first compound 0.000316 µM): 108% | viability, T/C (second compound 0.1 µM, first compound 0.001 µM): 105% | viability, T/C [5]: 94.2% | viability, T/C [6]: 94.4% | viability, T/C [7]: 90.2% | viability, T/C [8]: 74.9% | viability, T/C (second compound 0.316 µM, first compound 0.000316 µM): 107% | viability, T/C (second compound 0.316 µM, first compound 0.001 µM): 106% | viability, T/C [9]: 102% | viability, T/C [10]: 106% | viability, T/C [11]: 91.2% | viability, T/C [12]: 67.2% | viability, T/C (second compound 1 µM, first compound 0.000316 µM): 107% | viability, T/C (second compound 1 µM, first compound 0.001 µM): 108% | viability, T/C [13]: 111% | viability, T/C [14]: 96.8% | viability, T/C [15]: 97.4% | viability, T/C [16]: 66.2% | viability, T/C (second compound 3.16 µM, first compound 0.000316 µM): 100% | viability, T/C (second compound 3.16 µM, first compound 0.001 µM): 101% | viability, T/C [17]: 99.9% | viability, T/C [18]: 96.8% | viability, T/C [19]: 92.3% | viability, T/C [20]: 41.6% | viability, T/C (second compound 10 µM, first compound 0.000316 µM): 111% | viability, T/C (second compound 10 µM, first compound 0.001 µM): 97.4% | viability, T/C [21]: 99% | viability, T/C [22]: 72.9% | viability, T/C [23]: 49.8% | viability, T/C [24]: 32%

CCc1c2c(nc3ccc(O)cc13)-c1cc3c(c(=O)n1C2)COC(=O)[C@]3(O)CC + Cc1cccc(N(C)C(=O)C2C(O)CCN2c2nc(C)cc(C(F)(F)F)c2C#N)c1
IC50 (second compound 0.0316 µM): 11.6 nM | IC50 (second compound 0.1 µM): 14.3 nM | IC50 (second compound 0.316 µM): 14.2 nM | IC50 (second compound 1 µM): 17 nM | IC50 (second compound 3.16 µM): 13 nM | IC50 (second compound 10 µM): 6.84 nM | viability, T/C [1]: 89.5% | viability, T/C [2]: 55% | viability, T/C [3]: 15.1% | viability, T/C [4]: 12.8% | viability, T/C [25]: 12.9% | viability, T/C [26]: 15% | viability, T/C [5]: 91.8% | viability, T/C [6]: 63.5% | viability, T/C [7]: 20.2% | viability, T/C [8]: 11.3% | viability, T/C [27]: 12.8% | viability, T/C [28]: 16.3% | viability, T/C [9]: 100% | viability, T/C [10]: 63.4% | viability, T/C [11]: 19.7% | viability, T/C [12]: 11.9% | viability, T/C [29]: 12.4% | viability, T/C [30]: 17.1% | viability, T/C [13]: 100% | viability, T/C [14]: 72.8% | viability, T/C [15]: 23.5% | viability, T/C [16]: 10.3% | viability, T/C [31]: 12.4% | viability, T/C [32]: 15.3% | viability, T/C [17]: 90.9% | viability, T/C [18]: 58.3% | viability, T/C [19]: 21.7% | viability, T/C [20]: 9.8% | viability, T/C [33]: 12.3% | viability, T/C [34]: 17.4% | viability, T/C [21]: 82.3% | viability, T/C [22]: 34.1% | viability, T/C [23]: 10.5% | viability, T/C [24]: 10% | viability, T/C [35]: 13.9% | viability, T/C [36]: 17.7%

O=C(c1cc(Cc2n[nH]c(=O)c3ccccc23)ccc1F)N1CCN(C(=O)C2CC2)CC1 + COC1C(OC(N)=O)C(O)C(Oc2ccc3c(O)c(NC(=O)c4ccc(O)c(CC=C(C)C)c4)c(=O)oc3c2C)OC1(C)C
IC50 (second compound 0.0316 µM): > 10000 nM | IC50 (second compound 0.1 µM): > 10000 nM | IC50 (second compound 0.316 µM): > 10000 nM | IC50 (second compound 1 µM): > 10000 nM | IC50 (second compound 3.16 µM): > 10000 nM | IC50 (second compound 10 µM): > 10000 nM | viability, T/C [3]: 110% | viability, T/C [4]: 98% | viability, T/C [25]: 101% | viability, T/C [26]: 102% | viability, T/C (second compound 0.0316 µM, first compound 3.16 µM): 103% | viability, T/C (second compound 0.0316 µM, first compound 10 µM): 86.8% | viability, T/C [7]: 115% | viability, T/C [8]: 95% | viability, T/C [27]: 106% | viability, T/C [28]: 104% | viability, T/C (second compound 0.1 µM, first compound 3.16 µM): 89.8% | viability, T/C (second compound 0.1 µM, first compound 10 µM): 98.5% | viability, T/C [11]: 94.6% | viability, T/C [12]: 107% | viability, T/C [29]: 82.9% | viability, T/C [30]: 83.2% | viability, T/C (second compound 0.316 µM, first compound 3.16 µM): 93.5% | viability, T/C (second compound 0.316 µM, first compound 10 µM): 97.6% | viability, T/C [15]: 95.2% | viability, T/C [16]: 96.7% | viability, T/C [31]: 86.4% | viability, T/C [32]: 98% | viability, T/C (second compound 1 µM, first compound 3.16 µM): 98.1% | viability, T/C (second compound 1 µM, first compound 10 µM): 90.2% | viability, T/C [19]: 90% | viability, T/C [20]: 95.7% | viability, T/C [33]: 90.6% | viability, T/C [34]: 87% | viability, T/C (second compound 3.16 µM, first compound 3.16 µM): 95.7% | viability, T/C (second compound 3.16 µM, first compound 10 µM): 85.8% | viability, T/C [23]: 88.3% | viability, T/C [24]: 84% | viability, T/C [35]: 87.8% | viability, T/C [36]: 68.5% | viability, T/C (second compound 10 µM, first compound 3.16 µM): 87.5% | viability, T/C (second compound 10 µM, first compound 10 µM): 68.5%
